Tested on: Slug species
Experiment: Slug irritation test (mucus production as model of nasal irritation)
Type: in vivo
Details: 15 min exposure, mean ± SEM (n)
Method: The organic acid of the capsule contents was tested for potential nasal irritation using a slug irritation model.

Molecule: CCCCCCCCCCCCOS(=O)(=O)[O-].[Na+] [Sodium Lauryl Sulfate]
- Mucus Production (% of Body Weight) (dose 0.3 mg): 5.9 ± 2.0 (6) % of Body Weight
- Mucus Production (% of Body Weight) (dose 1.0 mg): 9.5 ± 2.1 (9) % of Body Weight
- Mucus Production (% of Body Weight) (dose 3.0 mg): 13.4 ± 2.6 (3) % of Body Weight
- Mucus Production (% of Body Weight) (dose 5.0 mg): 9.8 ± 2.1 (6) % of Body Weight
- Mucus Production (% of Body Weight) (dose 10 mg): 16.6 ± 0.9 (3) % of Body Weight
- Mucus Production (% of Body Weight) (dose 15 mg): 22.7 ± 4.5 (3) % of Body Weight
- Mucus Production (% of Body Weight) (dose 20 mg): 26.2 ± 3.8 (3) % of Body Weight

Molecule: O=C(O)C(O)C(O)C(=O)O (stereo not shown) [Tartaric Acid]
- Mucus Production (% of Body Weight) (dose 3.0 mg): 2.8 ± 2.4 (3) % of Body Weight
- Mucus Production (% of Body Weight) (dose 5.0 mg): 7.2 ± 0.7 (6) % of Body Weight
- Mucus Production (% of Body Weight) (dose 10 mg): 10.0 ± 1.3 (3) % of Body Weight
- Mucus Production (% of Body Weight) (dose 15 mg): 33.6 ± 1.1 (6) % of Body Weight
- Mucus Production (% of Body Weight) (dose 20 mg): 24.6 ± 2.8 (3) % of Body Weight

Molecule: Benzalkonium Chloride [Benzalkonium Chloride (BAC)]
- Mucus Production (% of Body Weight) (dose 1%): 24.7 ± 2.1 (3) % of Body Weight
